Several values for one entry are separate records, joined by “and”; a condition that tells them apart may be missing. Equal entries are not always repeated. Inconclusive results and toxic doses are left out. The calls were made as follows: active = survival T/C of 150% or more; inactive = T/C below 125% in these data.
Tested on: P388 leukemia ip, CD2F1 mice, survival T/C
Test: NCI In Vivo Anticancer Drug Screen. Data for tumor model P388 Leukemia (intraperitoneal) in CD2F1 (CDF1) mice
Conditions: endpoint: median survival time, higher = longer survival
In short: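 Mice carrying the transplanted tumor received test compound or vehicle. Survival was recorded in each group, and the value is the treated-group measurement divided by that of the vehicle-treated control group.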

[1] = dose: 60.0 mg/kg/injection, schedule: Q01DX005 (ip), vehicle: Klucel (hydroxypropylcellulose) (HPC)
[2] = dose: 120.0 mg/kg/injection, schedule: Q01DX005 (ip), vehicle: Klucel (hydroxypropylcellulose) (HPC)
[3] = dose: 240.0 mg/kg/injection, schedule: Q01DX005 (ip), vehicle: Klucel (hydroxypropylcellulose) (HPC)
[4] = dose: 3.13 mg/kg/injection, schedule: Q01DX009 (ip), vehicle: saline
[5] = dose: 50.0 mg/kg/injection, schedule: Q04DX003 (ip), vehicle: saline
[6] = dose: 50.0 mg/kg/injection, schedule: Q01DX005 (ip), vehicle: saline with Tween-80
[7] = dose: 100.0 mg/kg/injection, schedule: Q01DX005 (ip), vehicle: saline with Tween-80
[8] = dose: 6.25 mg/kg/injection, schedule: Q04DX003 (ip), vehicle: saline with Tween-80
[9] = dose: 12.5 mg/kg/injection, schedule: Q04DX003 (ip), vehicle: saline with Tween-80
[10] = dose: 25.0 mg/kg/injection, schedule: Q04DX003 (ip), vehicle: saline with Tween-80
[11] = dose: 100.0 mg/kg/injection, schedule: Q04DX003 (ip), vehicle: saline
[12] = dose: 200.0 mg/kg/injection, schedule: Q04DX003 (ip), vehicle: saline
[13] = dose: 12.5 mg/kg/injection, schedule: Q01DX009 (ip), vehicle: saline with Tween-80
[14] = dose: 25.0 mg/kg/injection, schedule: Q01DX009 (ip), vehicle: saline with Tween-80

Measured: T/C

N#CC1CNC(N)NC1N (stereo unspecified)
inactive: [1] 99 % of control | [2] 91 % of control | [3] 90 % of control

CC(=O)Oc1cc2nc3ccccc3nc2cc1N(C)C
inactive: dose: 50.0 mg/kg/injection, schedule: Q01DX009 (ip), vehicle: saline 99 % of control | dose: 100.0 mg/kg/injection, schedule: Q01DX009 (ip), vehicle: saline 90 % of control | dose: 200.0 mg/kg/injection, schedule: Q01DX009 (ip), vehicle: saline 100 % of control

OCCN1CCN(CC/C=C2\c3ccccc3Sc3ccc(Cl)cc32)CC1
inactive: [4] 102 % of control | dose: 6.25 mg/kg/injection, schedule: Q01DX009 (ip), vehicle: saline 113 % of control | dose: 11.0 mg/kg/injection, schedule: Q01DX009 (ip), vehicle: saline with Tween-80 109 % of control | [5] 88 % of control

O=C1/C(=C\c2ccccc2)C(NC2CCCCC2)c2ccccc21 (stereo unspecified)
inactive: dose: 3.12 mg/kg/injection, schedule: Q01DX005 (ip), vehicle: Klucel (hydroxypropylcellulose) (HPC) 109 % of control | dose: 6.25 mg/kg/injection, schedule: Q01DX005 (ip), vehicle: Klucel (hydroxypropylcellulose) (HPC) 100 % of control | dose: 12.5 mg/kg/injection, schedule: Q01DX005 (ip), vehicle: Klucel (hydroxypropylcellulose) (HPC) 107 % of control | dose: 25.0 mg/kg/injection, schedule: Q01DX005 (ip), vehicle: Klucel (hydroxypropylcellulose) (HPC) 107 % of control

CC1CCN(C(=S)NNC(C)c2cc3ccccc3cn2)CC1 (stereo unspecified)
inactive: dose: 6.25 mg/kg/injection, schedule: Q01DX005 (ip), vehicle: saline with Tween-80 114 % of control

CCCCOC(=O)NC(=O)c1cc2cc(Cl)ccc2oc1=O
inactive: [6] 95 % of control | [7] 88 % of control

O=C1OC(Nc2ccccc2)C(Cl)=C1Cl (stereo unspecified)
inactive: dose: 60.0 mg/kg/injection, schedule: Q01DX005 (ip), vehicle: saline with Tween-80 102 % of control | dose: 120.0 mg/kg/injection, schedule: Q01DX005 (ip), vehicle: saline with Tween-80 104 % of control | dose: 240.0 mg/kg/injection, schedule: Q01DX005 (ip), vehicle: saline with Tween-80 103 % of control

CC(=O)C(CSC(=O)c1ccccc1)C(C)=O
inactive: dose: 100.0 mg/kg/injection, schedule: Q04DX002 (ip), vehicle: Klucel (hydroxypropylcellulose) (HPC) 100 % of control | dose: 200.0 mg/kg/injection, schedule: Q04DX002 (ip), vehicle: Klucel (hydroxypropylcellulose) (HPC) 100 % of control

CCC(C)C1=NCCCN1 (stereo unspecified)
inactive: dose: 100.0 mg/kg/injection, schedule: Q01DX001 (ip), vehicle: saline 100 % of control

Nc1ncc(CCCCc2ccccc2)c(=O)[nH]1
inactive: dose: 100.0 mg/kg/injection, schedule: Q01DX001 (ip), vehicle: saline with Tween-80 100 % of control | dose: 200.0 mg/kg/injection, schedule: Q01DX001 (ip), vehicle: saline with Tween-80 104 % of control | dose: 400.0 mg/kg/injection, schedule: Q01DX001 (ip), vehicle: saline with Tween-80 100 % of control

Cc1c2oc3c(C)ccc(C(=O)NCCCN4CCN(C)CC4)c3nc-2c(C(=O)NCCCN2CCN(C)CC2)c(N)c1=O
inactive: [8] 106 % of control | [9] 104 % of control | [10] 114 % of control and 117 % of control | dose: 100.0 mg/kg/injection, schedule: Q04DX003 (ip), vehicle: saline with Tween-80 123 % of control

CC(NS(=O)(=O)N1CCOC1=O)c1ccccc1 (stereo unspecified)
inactive: [1] 104 % of control | [2] 107 % of control | [3] 104 % of control

COc1cc(O)c2c(O)c3c(c4c2c1[C@]1(C4)C(C)=CCCC1(C)C)[C@H](O)[C@@]1(O)CC(=O)C(C(N)=O)=C(O)[C@@]1(O)C3=O
inactive: [8] 100 % of control | dose: 12.0 mg/kg/injection, schedule: Q01DX009 (ip), vehicle: saline with Tween-80 112 % of control | [9] 100 % of control | dose: 25.0 mg/kg/injection, schedule: Q01DX009 (ip), vehicle: Klucel (hydroxypropylcellulose) (HPC) 120 % of control and 121 % of control | [10] 113 % of control | dose: 50.0 mg/kg/injection, schedule: Q01DX009 (ip), vehicle: Klucel (hydroxypropylcellulose) (HPC) 111 % of control

COC(=O)N1CCCc2cc3c(cc(OC)c(OC)c3c3[nH]c4ccccc4c23)CC1
inactive: dose: 50.0 mg/kg/injection, schedule: Q01DX005 (ip), vehicle: Klucel + Tween-80 100 % of control | dose: 100.0 mg/kg/injection, schedule: Q01DX005 (ip), vehicle: Klucel + Tween-80 95 % of control | dose: 200.0 mg/kg/injection, schedule: Q01DX005 (ip), vehicle: Klucel + Tween-80 91 % of control

C=CCN1C(=O)[N+](C)(C)N=C1[O-]
inactive: [11] 106 % of control | [12] 106 % of control | dose: 400.0 mg/kg/injection, schedule: Q04DX003 (ip), vehicle: saline 101 % of control

S=C(NC12CC3CC(CC(C3)C1)C2)[NH][Sn]([c]1ccccc1)([c]1ccccc1)[c]1ccccc1
inactive: dose: 0.78 mg/kg/injection, schedule: Q01DX009 (ip), vehicle: saline 92 % of control | dose: 1.56 mg/kg/injection, schedule: Q01DX009 (ip), vehicle: saline 96 % of control | [4] 100 % of control | [13] 117 % of control

Cc1ccc(S(=O)(=O)N/N=C/c2c(Cl)n(C(=O)c3ccccc3C)c3ccccc23)cc1
inactive: dose: 100.0 mg/kg/injection, schedule: Q01DX001 (ip), vehicle: Klucel (hydroxypropylcellulose) (HPC) 97 % of control | dose: 200.0 mg/kg/injection, schedule: Q01DX001 (ip), vehicle: Klucel (hydroxypropylcellulose) (HPC) 91 % of control | dose: 400.0 mg/kg/injection, schedule: Q01DX001 (ip), vehicle: Klucel (hydroxypropylcellulose) (HPC) 89 % of control

CCOc1ccc(NC(=O)C2=C(C)NC(C)=C(C(=O)Nc3ccc(OCC)cc3)C2c2cccc([N+](=O)[O-])c2)cc1
inactive: dose: 15.0 mg/kg/injection, schedule: Q01DX005 (ip), vehicle: Klucel (hydroxypropylcellulose) (HPC) 98 % of control | dose: 30.0 mg/kg/injection, schedule: Q01DX005 (ip), vehicle: Klucel (hydroxypropylcellulose) (HPC) 104 % of control | [1] 92 % of control and 97 % of control

O=c1oc2ccc(Cl)cc2c2c1OC(c1ccccc1)CN2 (stereo unspecified)
inactive: dose: 3.13 mg/kg/injection, schedule: Q01DX009 (ip), vehicle: saline with Tween-80 110 % of control | dose: 6.25 mg/kg/injection, schedule: Q01DX009 (ip), vehicle: saline with Tween-80 110 % of control | [13] 103 % of control | [14] 103 % of control

COc1cccc(Nc2ncnc3c2c(=O)n(C)c(=O)n3C)c1
inactive: dose: 25.0 mg/kg/injection, schedule: Q01DX005 (ip), vehicle: saline with Tween-80 91 % of control | [6] 87 % of control | [7] 87 % of control

CC(NC(CCCN=C(N)N)C(=O)O)C(=O)O (stereo unspecified)
inactive: dose: 60.0 mg/kg/injection, schedule: Q01DX005 (ip), vehicle: saline 92 % of control | dose: 120.0 mg/kg/injection, schedule: Q01DX005 (ip), vehicle: saline 100 % of control | dose: 240.0 mg/kg/injection, schedule: Q01DX005 (ip), vehicle: saline 100 % of control

Cn1cncc1/C=N\NC(N)=S
inactive: [14] 102 % of control | dose: 50.0 mg/kg/injection, schedule: Q01DX009 (ip), vehicle: saline with Tween-80 88 % of control | [5] 109 % of control | dose: 100.0 mg/kg/injection, schedule: Q01DX009 (ip), vehicle: saline with Tween-80 110 % of control | [11] 102 % of control | [12] 102 % of control
